Reference: patent US20220241409A1, “WATER SOLUBLE ADJUVANT AND COMPOSITION CONTAINING SAME” (Sumitomo Dainippon Pharma Co., Ltd., priority 2019, published 2022)

How the values were obtained:
[1] = tested on: HLA-A*24:02 transgenic mouse; assay: In vivo adjuvant activity, CTL induction with vaccine f, IFNγ ELISPOT (Test 19); conditions: 0.4 nmol per body added to vaccine f versus no compound; twice
Procedure: The in vivo adjuvant activity of the compound of Example 2 was evaluated in the following procedure. To a vaccine prepared by mixing Peptide SEQ ID No. 5 prepared in Reference example 19 with a preliminarily-emulsified composition (hereinafter, referred to as “vaccine f”) was added the compound prepared in Example 2 to prepare a vaccine. The vaccine was administered to a HLA-A*24:02 transgenic mouse, and the adjuvant activity of the vaccine was evaluated by the method of testing antigen-specific CTL induction. The CYTWNQMNL (SEQ ID No. 2) in Peptide SEQ ID No. 5 corresponds to an antigen peptide derived from an HLA-A*24:02-restricted WT1 protein.
(§1) The character for inducing CTLs specific to the antigen peptide (SEQ ID No. 2) by vaccine f was evaluated by measuring whether IFNγ can be produced upon stimulation of splenocytes from the mouse with the peptide. In addition, the character for exerting in vivo adjuvant activity by the compound in Example 2 was evaluated by comparing the number of CTLs induced by vaccine f and the number of CTLs induced by the vaccine prepared by adding the compound prepared in Example 2 to vaccine f, and checking presence or absence of the increase on the number.
Specifically, Peptide of SEQ ID No. 5 was dissolved in DMSO, and then diluted with water for injection to concentrations of 3 mg/mL. […]

[2] = tested on: HLA-A*24:02 transgenic mouse; assay: In vivo adjuvant activity, CTL induction with vaccine e, IFNγ ELISPOT (Test 16); conditions: 0.4 nmol per body added to vaccine e versus no compound; twice
Procedure: The in vivo adjuvant activity of the compound of Example 2 was evaluated in the following procedure. To a vaccine prepared by mixing Peptide SEQ ID No. 18 prepared in Reference example 18 with Montanide ISA 51 VG (hereinafter, referred to as “vaccine e”) was added the compound prepared in Example 2 to prepare a vaccine. The vaccine was administered to a HLA-A*24:02 transgenic mouse, and the adjuvant activity of the vaccine was evaluated by the method of testing antigen-specific CTL induction. The TYAGCLSQIF in Peptide SEQ ID No. 18 corresponds to an antigen peptide derived from an HLA-A*24:02-restricted Or7c1 protein.
as §1, with “No. 18)” for “No. 2)”, “vaccine e” for “vaccine f”, “vaccine e,” for “vaccine f,”
Specifically, Peptide of SEQ ID No. 18 was dissolved in DMSO, and then diluted with water for injection to concentrations of 3 mg/mL. […]

Antigen-Specific CTL = assay: Action of anti-PD-1 antibody in immune response of antigen-specific CTL for peptide and tumor cell (Test 13); type: in vivo, mouse; conditions: splenocyte of mice receiving vaccine b with Example 2 (325 ng per body, twice); antibody 37.5 μg/mL; culture with tumor cells and Peptide SEQ ID No. 1 about three days
Procedure: Vaccine b prepared like Test 8 was injected to a HLA-A*02:01 transgenic mouse intradermally at the tail base area in an amount for administering 300 μg of Compound of formula 4 per body and 225 μg of Peptide SEQ ID No. 3 per body. Or, a vaccine prepared by adding the compound prepared in Example 2 to vaccine b was injected to a HLA-A*02:01 transgenic mouse intradermally at the tail base area in an amount for administering 300 μg of Compound of formula 4 per body, 225 μg of Peptide SEQ ID No. 3 per body, and 325 ng of the compound prepared in Example 2 per body. The administrations were done twice, which had one week interval. One week after the final administration, the mice were sacrificed with CO2 gas, and then spleens removed from the mice. A splenocyte suspension was prepared from the spleens with CTM. And, like Test 11, Peptide SEQ ID No. 1 was pulsed to a part of the splenocyte, and the cell was mixed with LLC-HHD-WT1 tumor cell. To the mixed cells was added an isotype control antibody (Rat IgG2ax, BD Pharmingen) or anti-PD-1 antibody (clone 29F.1A12, Biolegend) at a final concentration of 37.5 μg/mL, and the mixture was cultured at 37° C. under an atmosphere of 5% CO2 for about three days. The concentration of mouse IFN-γ in the culture supernatant was measured with an ELISA kit.

## CCCCOc1nc(N)c2[nH]c(=O)n(Cc3ccc(CN(C)CCOCCOCCOCCOCCO)nc3)c2n1 [Example 2, 6-amino-2-butoxy-9-{[6-(16-hydroxy-2-methyl-5,8,11,14-tetraoxa-2-azahexadecan-1-yl)pyridin-3-yl]methyl}-7,9-dihydro-8H-purin-8-one-trifluoroacetate]
[1]
  CTL counts responsive to Peptide of SEQ ID No. 2: more
[2]
  CTL counts responsive to Peptide SEQ ID No. 18: more
Antigen-Specific CTL
  amount of IFN-γ produced from the CTL with anti-PD-1 antibody relative to isotype control antibody: 4 times
